Here are results for 1 molecule from patent US20250041310A1, “Combination Therapy Comprising A2A/A2B and PD-1/PD-L1 Inhibitors” (Incyte Corporation, priority 2020, published 2025).

Each structure is given as a SMILES string.

Assay [1] concerns primary T cells co-cultured with CHO-PD-L1 cells. To be noted: 2 μM NECA. The procedure:
In vitro the CHO-PD-L1 co-culture assay, T cells were treated in the presence of 20 CHO-PD-L1 cells with PD-1 antibody, and using 5′-N-ethylcarboxamide adenosine (NECA), an adenosine-mimicking reagent, to activate adenosine signaling.
Day 0, plate 10,000 CHO PDL1+ cells in Plate 96 Tissue Culture Flat Bottom plate in 100 ul of CHO Media without antibiotics. On day 1, T Cells were thawed and resuspended in T cell media at 1×10^6 cells/ml. Media was removed from the CHO PDL1+ cells plates and 130 ul of T cell media was added. T cell media at 198 ul was added onto the compound plates at 2 ul, or −1:100 dilution and then re-suspended. 20 ul of compounds from the compound plates were added onto the CHO cell plates at a final dilution of compounds at 1:1000. 50 ul of T cells (50,000 cells) were added onto the plates with CHO cells to make a total of 200 ul volume and incubation was carried out at 37° C. for 72 hrs. After 3 days in culture, the supernatant was collected for an hIFNg and hIL2 cytokine assay run using ProCartaplex 2 plex kits (Life Technologies Cat #PPX-02) for hIFNg and hIL2 (Manufacturer's Protocol). The cytokine assay using ProCartaplex kits are run on a Flex Map 3D Luminex multiplexing platform.

For assay [2], the system named is B16 melanoma. The assay is described as follows: In vivo efficacy study, B16 syngeneic melanoma model. Also noted: species or system mouse. To be noted: Compound 9 10 mg/kg BID combined with anti-PD-L1.
Assay [3] deals with PBMC from healthy donors stimulated by CD3 antibody. Nature of the assay: In vitro Mixed Lineage Reaction assay (MLR). Format: cell-based. The procedure: On day 0, 10,000 PBMCs from a healthy donor was co-cultured with 10,000 γ-radiated PBMCs from another healthy donor. […] Cells were incubated at 37° C. for 4 days. IFN-γ in the supernatant of each well was measured by a HTRF kit (Cisbio, 62[…]) and the fluorescent signal was detected on a Pherastar FS plate reader (BMG Labtech) on day 4.

For assay [4], the system named is CT-26 murine colon carcinoma hosted in NSG mice. The assay is described as follows: In vivo efficacy study, CT-26 NSG xenograft model. Also noted: species or system mouse. The settings on record: 10 mg/kg BID, CT-26 in NSG mice lacking T and NK cells.
Assay [5] concerns the target Adenosine A2A Receptor (Homo sapiens (Human), UniProt P29274). The assay is described as follows: A2A Tag-lite HTRF Assay. Format: binding. The settings on record: Tag-lite A2A labeled cells, fluorescent ligand 12.5 nM; read-out: A2A_Ki. On the technique in general: In TR-FRET formats the signal depends on donor and acceptor labels being close together.
Method: Test compounds were first serially diluted in DMSO and 100 nl added to the plate wells before the addition of other reaction components. The final concentration of DMSO was 1%. Tag-lite® Adenosine A2A labeled cells (CisBio C1TT1A2A) were diluted 1:5 into Tag-lite buffer (CisBio LABMED) and spun 1200 g for 5 mins.

Adenosine A2A Receptor, sequence (P29274 whole entry): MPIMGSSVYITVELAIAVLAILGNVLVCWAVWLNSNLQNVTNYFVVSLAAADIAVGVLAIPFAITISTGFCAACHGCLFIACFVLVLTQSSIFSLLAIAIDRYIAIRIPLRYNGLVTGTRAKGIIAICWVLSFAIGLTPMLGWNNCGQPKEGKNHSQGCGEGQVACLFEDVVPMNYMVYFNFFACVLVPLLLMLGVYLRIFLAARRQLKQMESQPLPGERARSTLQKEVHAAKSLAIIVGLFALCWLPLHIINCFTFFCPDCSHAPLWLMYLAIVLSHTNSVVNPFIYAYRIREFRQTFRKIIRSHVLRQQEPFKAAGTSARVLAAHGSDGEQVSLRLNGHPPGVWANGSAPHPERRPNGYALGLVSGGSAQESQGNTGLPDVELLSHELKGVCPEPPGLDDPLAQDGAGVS

Consider `Cn1nc(-c2c(-c3cccc(C#N)c3)nc(N)c3nc(Cc4ccccn4)nn23)ccc1=O` [Compound 9, 3-(8-Amino-5-(1-methyl-6-oxo-1,6-dihydropyridazin-3-yl)-2-(pyridin-2-ylmethyl)-[1,2,4]triazolo[1,5-a]pyrazin-6-yl)benzonitrile], for which the “effect of combination with pembrolizumab” value in assay [1] (FIG. 1A) is given as “synergistic effect”. Also, in assay [1] (FIG. 1B), the “effect of combination with Antibody X” value is reported as “synergistic effect”. In assay [1] (FIG. 1C), the “effect of combination with Compound Y” value is recorded as “synergistic effect”. In assay [2], the tumor growth inhibition was determined as 54%. Moreover, the “effect of combination with atezolizumab” value in assay [3] (PBMC stimulated with CD3 antibody, FIGS. 2A-2D) is reported as “synergistic effect”. In assay [3] (combined with anti-PD-L1 antibody atezolizumab, 1 μM NECA, CD3 antibody, 4 days), the IFNγ production entry is “increase IFNγ production significantly”. The single agent efficacy result in assay [4] is recorded as “no single agent efficacy”. For the same molecule, the Ki in assay [5] was less than 10 nM.
